Test results as given in patent publication US9199975B2, “Biaryl imidazole derivatives for regulating CYP17” (Asana Biosciences, LLC, priority 2011, dated 2015).

Columns and labels:
human CYP17 = target: T1, human CYP17 (Homo sapiens, UniProt P05093); test: Cell-based human CYP17 inhibition assay, LNCap-CYP17 cells; settings: 16 hours at 37° C.
T1 sequence (P05093 1-508): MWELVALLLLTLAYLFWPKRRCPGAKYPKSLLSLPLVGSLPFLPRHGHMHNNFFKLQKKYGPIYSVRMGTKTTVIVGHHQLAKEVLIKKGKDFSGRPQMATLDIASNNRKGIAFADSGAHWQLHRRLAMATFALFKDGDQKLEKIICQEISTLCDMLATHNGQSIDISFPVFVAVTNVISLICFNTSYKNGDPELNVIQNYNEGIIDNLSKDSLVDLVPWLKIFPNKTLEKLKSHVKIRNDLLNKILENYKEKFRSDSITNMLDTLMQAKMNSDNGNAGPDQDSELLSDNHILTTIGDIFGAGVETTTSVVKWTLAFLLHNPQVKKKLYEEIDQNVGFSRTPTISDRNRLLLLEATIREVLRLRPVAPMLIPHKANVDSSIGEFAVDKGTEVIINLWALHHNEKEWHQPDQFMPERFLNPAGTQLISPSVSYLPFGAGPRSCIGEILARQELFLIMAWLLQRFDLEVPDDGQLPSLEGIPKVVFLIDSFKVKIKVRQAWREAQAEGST
Protocol: Cell-Based Human CYP17 Inhibition Assay
A. Materials • 1. H295R Adrenocortical Carcinoma Cells and Growth Media: The media for the H295R Adrenocortical carcinoma cells [NCI-H295A, ATCC Number CRL-2128, American Type Culture Collection, Manassas, Va., US] (500 mL) was a DMEM:F12 Mix 1:1 with 5% […] BD Nu Serum; 1% (5 mL) ITS+Premix [BD Biosciences] and 1% Penstrep. • 2. LNCap-CYP17 Cells and Growth Media: Full length hCYP17a1 gene (NCBI Reference Sequence: NM_000102.3) was cloned in pCDNA3.1(+) vector between HindIII and XhoI site. The pCDNA3.1(+) vector contains the Neomycin resistance gene and was used for selection of stable cell line. The hCYP17a1 containing pCDNA3.1(+) was transfected into LNCap cells to create the LNCap-CYP17 cell line. The media for the LNCaP-CYP17 cells was RPMI 1640, 10% FBS, 1% PenStrep, Geneticin 400 μg/mL.
The H295R cells or LNCaP-hCYP17 cells were subcultured and 30,000 cells per well were seeded in a poly-d lysine plate and incubated overnight at 37° C. The next day the media was removed and 200 µL of fresh media with ^3H3-17α-hydroxy-pregnenolone (1:1000) was added. 50 μL of serially diluted compounds from a 5× plate (5 times the final desired concentration) was added. The working concentration range for active, new compounds started from a high concentration of […] with 3-fold serial dilutions generating up to 10 concentrations. The serial dilution in the 100× plate (in DMSO) and the stamping of a 5× plate (in media) from the 100× plate were carried out using a TECAN liquid handling device.
The plates were incubated overnight (16 hours) at 37° C. After 16 hours, the media was removed (approximately 220 μL) and an equal amount of chloroform was added, mixed and incubated for 30 minutes at 4 degrees. The plate was centrifuged at 4000 rpm for 15 minutes at 4° C., following which the top aqueous layer was carefully removed and added into a new deep well plate. An equal volume of activated 5% charcoal was added, mixed and incubated for 30 minutes at 4° C. The plate was then centrifuged at 4000 rpm for 15 minutes at 4° C. and the top layer carefully separated, avoiding any charcoal contamination, and placed in a white, clear bottom plate (plate cat #3610, Corning Life Sciences). An equal volume of Microscint™ 40 was added and mixed well. Following the incubation for 30 minutes, readings for the radiotracer were taken using a Microbeta® trilux.

[1] = system: testosterone production in H295R cells; test: Cell-based functional assay for testosterone production in H295R cells; settings: Homo sapiens, NCI-H295R, 72 hours, testosterone ELISA, read-out: Testosterone (human H295R adrenal cells)
Protocol: Cell-based Functional Assay for Testosterone Production
H295R cells (ATCC Number CRL-2128) were subcultured, seeded (30,000 cells per well in a poly-d lysine plate) and left overnight at 37° C. The next day (after approximately 24 hours), the media were removed and 200 μL fresh media were added. Then, 50 μL of serially diluted compounds was added from a 5× plate. The serial dilution in the 100× plate (in DMSO) and the stamping of a 5× plate (in media) from the 100× plate were carried out using a TECAN liquid handling device. The plate was incubated at 37° C. for 72 hours. After incubation, the media was removed, diluted 5 to 10 times with calibration diluent RD5-48, and the assay performed as per manufacturer's protocol (Parameter Testosterone Assay, Cat. No. KGE010, R&D systems; http://www.rndsystems.com/pdf/KGE010.pdf).

| SMILES | IC50 (human CYP17) | IC50 [1] |
| --- | --- | --- |
| CCC(c1ccc(-c2cccc(O)c2)cn1)n1ccnc1 (stereo not drawn) [Example 8, 3-(6-(1-(1H-imidazol-1-yl)propyl)pyridin-3-yl)phenol] | 0.05 to 0.2 µM |  |
| CC(c1cnc(-c2ccc(F)cc2F)s1)n1ccnc1 (stereo not drawn) [Example 28, 2-(2,4-Difluoro-phenyl)-5-(1-imidazol-1-yl-ethyl)-thiazole] |  | 0.05 to 0.2 µM |
| CCOC(=O)c1ccc(-c2ccc(C(CC)n3ccnc3)nc2)cc1 (stereo not drawn) [Example 5, Ethyl 4-(6-(1-(1H-imidazol-1-yl)propyl)pyridin-3-yl)benzoate] | 0.201 to 10 µM |  |
| CC(c1ccc(-c2ccc(=O)n(C(C)C)c2)s1)n1ccnc1 (stereo not drawn) [Example 21, 5-(5-(1-(1H-imidazol-1-yl)ethyl)thiophen-2-yl)-1-isopropylpyridin-2(1H)-one] |  | 0.201 to 10 µM |
| CCC(c1ccc(-c2cccc(OC)c2)cn1)n1ccnc1 (stereo not drawn) [Example 7, 2-(1-(1H-imidazol-1-yl)propyl)-5-(3-methoxyphenyl)pyridine] | 0.05 to 0.2 µM |  |
| CC(c1cnc(-c2ccc(C#N)cc2)s1)n1ccnc1 (stereo not drawn) [Example 22, 4-(5-(1-(1H-imidazol-1-yl)ethyl)thiazol-2-yl)benzonitrile] |  | 0.201 to 10 µM |
| CC(c1ccc(-c2ccc(=O)n(C)c2)s1)n1ccnc1 (stereo not drawn) [Example 20, 5-(5-(1-(1H-imidazol-1-yl)ethyl)thiophen-2-yl)-1-methylpyridin-2(1H)-one] |  | < 0.05 µM |
| CC(c1ccc(-c2ccc(F)cc2)cn1)n1ccnc1 (stereo not drawn) [Example 12, 2-(1-(1H-imidazol-1-yl)ethyl)-5-(4-fluorophenyl)pyridine] |  | 0.201 to 10 µM |

Now from value to compound, other results behind:

| IC50 (human CYP17) | SMILES | IC50 [1] |
| --- | --- | --- |
| < 0.05 µM | CCC(c1ccc(-c2ccc(O)cc2)o1)n1ccnc1 (stereo not drawn) [Example 30, 4-[5-(1-Imidazol-1-yl-propyl)-furan-2-yl]-phenol] |  |
| 0.201 to 10 µM | CCC(c1ccc(-c2ccccc2OC)cn1)n1ccnc1 (stereo not drawn) [Example 56, 2-(1-Imidazol-1-yl-propyl)-5-(2-methoxy-phenyl)-pyridine] |  |
| 0.201 to 10 µM | CCC(c1cnc(-c2ccc(O)cc2)s1)n1ccnc1 (stereo not drawn) [Example 60, 4-[5-(1-Imidazol-1-yl-propyl)-thiazol-2-yl]-phenol] |  |
| 0.201 to 10 µM | CCC(c1cnc(-c2ccc(OC)cc2)s1)n1ccnc1 (stereo not drawn) [Example 35, 5-(1-Imidazol-1-yl-propyl)-2-(4-methoxy-phenyl)-thiazole] |  |
| 0.05 to 0.2 µM | CCC(c1ccc(-c2ccc(OC)cc2)o1)n1ccnc1 (stereo not drawn) [Example 27, 1-{1-[5-(4-Methoxy-phenyl)-furan-2-y]-propyl}-1H-imidazole] |  |
| 0.201 to 10 µM | CCC(c1ccc(-c2ccccc2O)cn1)n1ccnc1 (stereo not drawn) [Example 37, 2-[6-(1-Imidazol-1-yl-propyl)-pyridin-3-yl]-phenol] |  |
| 0.05 to 0.2 µM | CC(c1ccc(-c2ccc(O)cc2)s1)n1ccnc1 (stereo not drawn) [Example 49, 4-[5-(1-Imidazol-1-yl-ethyl)-thiophen-2-yl]-phenol] |  |
